Legend:
Assay type in all cases: in vivo
[1] = tested on: Japanese bulrush (Scirpus juncoides Roxb.); test: Test Example 1: herbicidal effect by soil application to paddy field; settings: paddy field soil application; active ingredient 1,000 g per 1 hectare; wettable powder added dropwise to water surface the day after sowing; examined on the 21st day after application
Summary of the method: (§1)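 Under greenhouse conditions, seeds sown on puddled paddy soil in 100 cm2 pots under 3 cm of standing water received the test compound; injury was assessed with a standard scoring scheme three weeks (day 21) after treatment.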

[2] = tested on: early watergrass (Echinochloa oryzicola Vasing); test: as above; settings: paddy field soil application; active ingredient 1,000 g per 1 hectare; wettable powder added dropwise to water surface the day after sowing; examined on the 21st day after application
Summary of the method: as §1

[3] = tested on: heartshape false pickerelweed (Monochoria vaginalis (Burm.f.) C.Presl); test: as above; settings: paddy field soil application; active ingredient 1,000 g per 1 hectare; wettable powder added dropwise to water surface the day after sowing; examined on the 21st day after application
Summary of the method: as §1

[4] = tested on: barnyardgrass (Echinochloa crus-galli (L.) P. Beauv. var. crus-galli); test: Test Example 2: herbicidal effect by soil application to upland field; settings: soil surface spray, upland field soil, 1,000 g active ingredient per hectare, 21st day after application
Summary of the method: (§2)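 Pots of field soil, seeds sown and soil-covered; wettable powder diluted in water sprayed on soil at 1,000 g a.i./ha (1,000 L/ha). Greenhouse-grown; herbicidal effect rated per standard at 21 days post-application.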

[5] = tested on: green foxtail (Setaria viridis (L.) P. Beauv.); test: as above; settings: soil surface spray, upland field soil, 1,000 g active ingredient per hectare, 21st day after application
Summary of the method: as §2

[6] = tested on: slender amaranth (Amaranthus viridis L.); test: as above; settings: soil surface spray, upland field soil, 1,000 g active ingredient per hectare, 21st day after application
Summary of the method: as §2

[7] = tested on: velvetleaf (Abutilon theophrasti medicus); test: as above; settings: soil surface spray, upland field soil, 1,000 g active ingredient per hectare, 21st day after application
Summary of the method: as §2

[8] = tested on: barnyardgrass (Echinochloa crus-galli (L.) P. Beauv. var. crus-galli); test: Test Example 3: herbicidal effect by application to upland field (foliage treatment); settings: 14th day after application; for herbicidal effect, Barnyardgrass: foliage treatment, 1,000 g active ingredient per 1 hectare, greenhouse; for herbicidal effect (index), Barnyardgrass: foliage treatment, plants grown two weeks, 1,000 g active ingredient per hectare
Summary of the method: (§3)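 Effect scores come from a standard grading 14 days after plants, grown from seed for two weeks in field soil in a greenhouse, were sprayed over the top with wettable powder in water at 1,000 g active ingredient per hectare.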

[9] = tested on: green foxtail (Setaria viridis (L.) P. Beauv.); test: as above; settings: 14th day after application; for herbicidal effect, Green Foxtail: foliage treatment, 1,000 g active ingredient per 1 hectare, greenhouse; for herbicidal effect (index), Green Foxtail: foliage treatment, plants grown two weeks, 1,000 g active ingredient per hectare
Summary of the method: as §3

[10] = tested on: slender amaranth (Amaranthus viridis L.); test: as above; settings: 14th day after application; for herbicidal effect, Slender Amaranth: foliage treatment, 1,000 g active ingredient per 1 hectare, greenhouse; for herbicidal effect (index), Slender Amaranth: foliage treatment, plants grown two weeks, 1,000 g active ingredient per hectare
Summary of the method: as §3

[11] = tested on: velvetleaf (Abutilon theophrasti medicus); test: as above; settings: 14th day after application; for herbicidal effect, Velvetleaf: foliage treatment, 1,000 g active ingredient per 1 hectare, greenhouse; for herbicidal effect (index), Velvetleaf: foliage treatment, plants grown two weeks, 1,000 g active ingredient per hectare
Summary of the method: as §3

Row | Compound | herbicidal effect, Scirpus juncoides Roxb. [1] | herbicidal effect, Echinochloa oryzicola Vasing [2] | herbicidal effect, Monochoria vaginalis (Burm. f.) C. Presl [3] | herbicidal effect (index), Barnyardgrass [4] | herbicidal effect (index), Green Foxtail [5] | herbicidal effect (index), Slender Amaranth [6] | herbicidal effect (index), Velvetleaf [7] | herbicidal effect, Barnyardgrass [8] | herbicidal effect, Green Foxtail [9] | herbicidal effect, Slender Amaranth [10] | herbicidal effect, Velvetleaf [11] | herbicidal effect (index), Barnyardgrass [8] | herbicidal effect (index), Green Foxtail [9] | herbicidal effect (index), Slender Amaranth [10] | herbicidal effect (index), Velvetleaf [11]
1 | CS(=O)(=O)CCCn1c(C(F)(F)F)ccc(C(=O)C2=C(O)C3CCC(C3)C2=O)c1=O (stereo not shown) [III-33] | 5 (90% or more of herbicidal effect and crop phytotoxicity) | 5 (90% or more of herbicidal effect and crop phytotoxicity) | 5 (90% or more of herbicidal effect and crop phytotoxicity) | 4 (70 to less than 90% of herbicidal effect and crop phytotoxicity) | 5 (90% or more of herbicidal effect and crop phytotoxicity) | 5 (90% or more of herbicidal effect and crop phytotoxicity) | 5 (90% or more of herbicidal effect and crop phytotoxicity) | 5 (90% or more of herbicidal effect and crop phytotoxicity) | 5 (90% or more of herbicidal effect and crop phytotoxicity) | 5 (90% or more of herbicidal effect and crop phytotoxicity) | 5 (90% or more of herbicidal effect and crop phytotoxicity) |  |  |  | 
2 | COCCn1c(C(F)(F)F)ccc(C(=O)C2=C(O)C3CCC(C3)C2=O)c1=O (stereo not shown) [III-19] | 5 (90% or more of herbicidal effect and crop phytotoxicity) | 5 (90% or more of herbicidal effect and crop phytotoxicity) | 5 (90% or more of herbicidal effect and crop phytotoxicity) | 5 (90% or more of herbicidal effect and crop phytotoxicity) | 5 (90% or more of herbicidal effect and crop phytotoxicity) | 5 (90% or more of herbicidal effect and crop phytotoxicity) | 5 (90% or more of herbicidal effect and crop phytotoxicity) | 5 (90% or more of herbicidal effect and crop phytotoxicity) | 5 (90% or more of herbicidal effect and crop phytotoxicity) | 5 (90% or more of herbicidal effect and crop phytotoxicity) | 5 (90% or more of herbicidal effect and crop phytotoxicity) |  |  |  | 
3 | CCCCn1c(C(F)(F)F)ccc(C(=O)C2=C(O)CCCC2=O)c1=O [I-5] | 5 (90% or more of herbicidal effect and crop phytotoxicity) | 5 (90% or more of herbicidal effect and crop phytotoxicity) | 5 (90% or more of herbicidal effect and crop phytotoxicity) | 5 (90% or more of herbicidal effect and crop phytotoxicity) | 5 (90% or more of herbicidal effect and crop phytotoxicity) | 5 (90% or more of herbicidal effect and crop phytotoxicity) | 5 (90% or more of herbicidal effect and crop phytotoxicity) |  |  |  |  | 5 (90% or more of herbicidal effect and crop phytotoxicity) | 5 (90% or more of herbicidal effect and crop phytotoxicity) | 5 (90% or more of herbicidal effect and crop phytotoxicity) | 5 (90% or more of herbicidal effect and crop phytotoxicity)
4 | CCC(C)n1c(C(F)(F)F)ccc(C(=O)C2=C(O)CCCC2=O)c1=O (stereo not shown) [I-7] | 5 (90% or more of herbicidal effect and crop phytotoxicity) | 5 (90% or more of herbicidal effect and crop phytotoxicity) | 5 (90% or more of herbicidal effect and crop phytotoxicity) | 5 (90% or more of herbicidal effect and crop phytotoxicity) | 5 (90% or more of herbicidal effect and crop phytotoxicity) | 5 (90% or more of herbicidal effect and crop phytotoxicity) | 5 (90% or more of herbicidal effect and crop phytotoxicity) |  |  |  |  | 5 (90% or more of herbicidal effect and crop phytotoxicity) | 5 (90% or more of herbicidal effect and crop phytotoxicity) | 5 (90% or more of herbicidal effect and crop phytotoxicity) | 5 (90% or more of herbicidal effect and crop phytotoxicity)
5 | CC1=NOC(Cn2c(C(F)(F)F)ccc(C(=O)C3=C(O)CCCC3=O)c2=O)C1 (stereo not shown) [I-126] | 5 (90% or more of herbicidal effect and crop phytotoxicity) | 5 (90% or more of herbicidal effect and crop phytotoxicity) | 5 (90% or more of herbicidal effect and crop phytotoxicity) | 5 (90% or more of herbicidal effect and crop phytotoxicity) | 5 (90% or more of herbicidal effect and crop phytotoxicity) | 5 (90% or more of herbicidal effect and crop phytotoxicity) | 5 (90% or more of herbicidal effect and crop phytotoxicity) | 5 (90% or more of herbicidal effect and crop phytotoxicity) | 5 (90% or more of herbicidal effect and crop phytotoxicity) | 5 (90% or more of herbicidal effect and crop phytotoxicity) | 5 (90% or more of herbicidal effect and crop phytotoxicity) |  |  |  | 
6 | COc1cc(-n2c(C(F)(F)F)ccc(C(=O)c3cnn(C)c3O)c2=O)ccc1Cl [IV-90] | 5 (90% or more of herbicidal effect and crop phytotoxicity) | 5 (90% or more of herbicidal effect and crop phytotoxicity) | 5 (90% or more of herbicidal effect and crop phytotoxicity) | 5 (90% or more of herbicidal effect and crop phytotoxicity) | 3 (50 to less than 70% of herbicidal effect and crop phytotoxicity) | 5 (90% or more of herbicidal effect and crop phytotoxicity) | 5 (90% or more of herbicidal effect and crop phytotoxicity) | 5 (90% or more of herbicidal effect and crop phytotoxicity) | 5 (90% or more of herbicidal effect and crop phytotoxicity) | 5 (90% or more of herbicidal effect and crop phytotoxicity) | 5 (90% or more of herbicidal effect and crop phytotoxicity) |  |  |  | 
7 | CCCS(=O)(=O)Oc1c(C(=O)c2ccc(C(F)(F)F)n(CCOCCOC)c2=O)cnn1CC [IV-204] | 5 (90% or more of herbicidal effect and crop phytotoxicity) | 5 (90% or more of herbicidal effect and crop phytotoxicity) | 5 (90% or more of herbicidal effect and crop phytotoxicity) | 5 (90% or more of herbicidal effect and crop phytotoxicity) | 5 (90% or more of herbicidal effect and crop phytotoxicity) | 5 (90% or more of herbicidal effect and crop phytotoxicity) | 5 (90% or more of herbicidal effect and crop phytotoxicity) | 5 (90% or more of herbicidal effect and crop phytotoxicity) | 5 (90% or more of herbicidal effect and crop phytotoxicity) | 5 (90% or more of herbicidal effect and crop phytotoxicity) | 5 (90% or more of herbicidal effect and crop phytotoxicity) |  |  |  | 
8 | COCCn1c(C(F)(F)F)ccc(C(=O)c2cnn(C)c2O)c1=O [IV-33] | 5 (90% or more of herbicidal effect and crop phytotoxicity) | 5 (90% or more of herbicidal effect and crop phytotoxicity) | 5 (90% or more of herbicidal effect and crop phytotoxicity) | 5 (90% or more of herbicidal effect and crop phytotoxicity) | 5 (90% or more of herbicidal effect and crop phytotoxicity) | 5 (90% or more of herbicidal effect and crop phytotoxicity) | 5 (90% or more of herbicidal effect and crop phytotoxicity) | 5 (90% or more of herbicidal effect and crop phytotoxicity) | 5 (90% or more of herbicidal effect and crop phytotoxicity) | 5 (90% or more of herbicidal effect and crop phytotoxicity) | 5 (90% or more of herbicidal effect and crop phytotoxicity) |  |  |  | 

Source: patent US8076487B2, “Pyridone derivative and herbicide” (Kumiai Chemical Industry Co., Ltd., priority 2006, dated 2011)
